Experimental data as given in ChEMBL document CHEMBL2380205, “Discovery of a new class of natural product-inspired quinazolinone hybrid as potent antileishmanial agents” (J Med Chem, 2013).

Columns and labels:
[1] = test system: Leishmania donovani; assay: Antileishmanial activity against amastigotes of Leishmania donovani MHOM/IN/60/Dd8 infected in mouse J-774A.1 cells after 72 hrs by luciferase reporter gene assay; format: functional, organism-based; conditions: MHOM/IN/60/Dd8, J774.A1, 72 h
[2] = test system: Leishmania donovani; assay: Antileishmanial activity against promastigotes of Leishmania donovani MHOM/IN/60/Dd8 after 72 hrs by luciferase reporter gene assay; format: functional, organism-based; conditions: MHOM/IN/60/Dd8, 72 h
[3] = test system: Leishmania donovani; assay: Antileishmanial activity against amastigotes of Leishmania donovani MHOM/IN/60/Dd8 infected in golden hamster assessed as amastigote count at 50 mg/kg/day, ip administered for 5 days measured on day 7 of post last dose by Giemsa staining; format: functional; conditions: MHOM/IN/60/Dd8, ip, route intraperitoneal
[4] = Selectivity index, ratio of CC50 for mouse J774A1 cells to IC50 for amastigotes of Leishmania donovani MHOM/IN/60/Dd8 infected in mouse J-774A.1 cells; format: functional, J774.A1
[5] = Cytotoxicity against mouse J774A1 cells after 72 hrs by MTT assay; format: cell-based, J774.A1
[6] = Lipophilicity, log P of the compound; format: physicochemical; conditions: octanol/water
[7] = Cytotoxicity against african green monkey Vero cells after 72 hrs by MTT assay; format: cell-based; conditions: chlorocebus sabaeus

| SMILES | IC50 [1] | IC50 [2] | inhibition in vivo at 50 mg/kg/day [3] | Ratio CC50/IC50 [4] | CC50 at 72 h [5] | logP [6] | CC50 at 72 h [7] |
| --- | --- | --- | --- | --- | --- | --- | --- |
| COc1ccc(C(Nc2ccc(C3(C)NC(=O)c4ccccc4N3)cc2)c2nnnn2C2CCCCC2)cc1 (stereo not given) | 16.8 µM | > 40 µM |  |  |  |  |  |
| CC(C)c1ccc(C(Nc2ccc(C3(C)NC(=O)c4ccccc4N3)cc2)c2nnnn2C(C)(C)C)cc1 (stereo not given) | 7.76 µM | 4.02 µM | 54% | >51.54 | > 400 µM | 6.03 | > 400 µM |
| CC1(c2ccc(Nc3nc(Nc4ccccc4)nc(Nc4ccccc4)n3)cc2)NC(=O)c2ccccc2N1 (stereo not given) |  | 3.02 µM |  |  |  |  |  |
| CC(C)(C)NC(=O)C(c1ccc(Cl)cc1)N(C(=O)c1cccc(Cl)c1)c1ccc(C2(C)NC(=O)c3ccccc3N2)cc1 (stereo not given) | 13.5 µM | > 40 µM |  | >29.67 | > 400 µM |  | > 400 µM |
| COc1ccc(C(C(=O)NC(C)(C)C)N(C(=O)c2cccc(Cl)c2)c2ccc(C3(C)NC(=O)c4ccccc4N3)cc2)cc1 (stereo not given) | 29.6 µM | > 40 µM |  |  |  |  |  |
| CC1(c2ccc(Nc3nc(NCc4ccco4)nc(NCc4ccco4)n3)cc2)NC(=O)c2ccccc2N1 (stereo not given) | > 20 µM | 13.2 µM |  |  |  |  |  |
| CC(C)(C)n1nnnc1C(c1ccc(C2NC(=O)c3ccccc3N2)cc1)N1CCc2ccccc2C1 (stereo not given) | > 40 µM | 1.27 µM |  |  |  |  |  |
| COc1cccc(-c2cc(-c3ccc(C4NC(=O)c5ccccc5N4)cc3)nc(N)n2)c1OC (stereo not given) | 4.43 µM | 4.23 µM |  | >90.29 | > 400 µM |  | > 400 µM |
| CC(C)c1ccc(C(C(=O)NC(C)(C)C)N(C(=O)c2cccc(Cl)c2)c2ccc(C3(C)NC(=O)c4ccccc4N3)cc2)cc1 (stereo not given) | 12 µM | > 40 µM |  | >33.25 | > 400 µM |  | > 400 µM |
| CC1(c2ccc(NC(c3ccc(Cl)cc3)c3nnnn3C3CCCCC3)cc2)NC(=O)c2ccccc2N1 (stereo not given) | 11.3 µM | 39.4 µM |  | >35.3 | > 400 µM |  | > 400 µM |
| CC1(c2ccc(Nc3nc(N4CCCc5ccccc54)nc(N4CCCc5ccccc54)n3)cc2)NC(=O)c2ccccc2N1 (stereo not given) | > 40 µM | 33.2 µM |  |  |  |  |  |
| Nc1nc(-c2ccc(Br)cc2)cc(-c2ccc(C3NC(=O)c4ccccc4N3)cc2)n1 (stereo not given) | 7.02 µM | 2.82 µM |  | 17.82 | 125 µM |  | > 400 µM |
| COc1ccc(C(Nc2ccc(C3(C)NC(=O)c4ccccc4N3)cc2)c2nnnn2C(C)(C)C)cc1 (stereo not given) | 13.1 µM | 3.05 µM |  | >30.65 | > 400 µM |  | > 400 µM |
| CCCCNC(c1ccc(C2NC(=O)c3ccccc3N2)cc1)c1nnnn1C(C)(C)C (stereo not given) | > 40 µM | 5.59 µM |  |  |  |  |  |
| COc1ccc(C(C(=O)NC2CCCCC2)N(C(=O)c2cccc(Cl)c2)c2ccc(C3(C)NC(=O)c4ccccc4N3)cc2)cc1 (stereo not given) | 15.5 µM | > 40 µM |  |  |  |  |  |
| CC1(c2ccc(NC(c3ccc(F)cc3)c3nnnn3C(C)(C)C)cc2)NC(=O)c2ccccc2N1 (stereo not given) | > 20 µM | 3.68 µM |  |  |  |  |  |
| CC1(c2ccc(N(C(=O)c3cccc(Cl)c3)C(C(=O)NC3CCCCC3)c3ccc(Cl)cc3)cc2)NC(=O)c2ccccc2N1 (stereo not given) | 15.8 µM | 39.5 µM |  |  |  |  |  |
| CC1(c2ccc(NC(c3ccc(Br)cc3)c3nnnn3C3CCCCC3)cc2)NC(=O)c2ccccc2N1 (stereo not given) | 9.42 µM | > 40 µM |  | >42.46 | > 400 µM |  | > 400 µM |
| COc1ccc(CNc2nc(NCc3ccc(OC)cc3)nc(Nc3ccc(C4(C)NC(=O)c5ccccc5N4)cc3)n2)cc1 (stereo not given) | > 40 µM | > 40 µM |  |  |  |  |  |
| Nc1nc(-c2ccccc2)cc(-c2ccc(C3NC(=O)c4ccccc4N3)cc2)n1 (stereo not given) | 17 µM | 4.04 µM |  |  |  |  |  |
| Nc1nc(-c2ccc(C3NC(=O)c4ccccc4N3)cc2)cc(-c2ccccc2Cl)n1 (stereo not given) | 15.3 µM | 9 µM |  |  |  |  |  |

| SMILES | IC50 [1] | IC50 [2] | inhibition in vivo at 50 mg/kg/day [3] | Ratio CC50/IC50 [4] | CC50 at 72 h [5] | logP [6] | CC50 at 72 h [7] |
| --- | --- | --- | --- | --- | --- | --- | --- |
| CCCCCNC(c1ccc(C2NC(=O)c3ccccc3N2)cc1)c1nnnn1C(C)(C)C (stereo not given) | > 40 µM | 1.91 µM |  |  |  |  |  |
| CC(C)(C)NC(=O)C(c1ccc(Br)cc1)N(C(=O)c1cccc(Cl)c1)c1ccc(C2(C)NC(=O)c3ccccc3N2)cc1 (stereo not given) | 15.6 µM | > 40 µM |  |  |  |  |  |
| CC1(c2ccc(Nc3nc(N4CCC(O)CC4)nc(N4CCC(O)CC4)n3)cc2)NC(=O)c2ccccc2N1 (stereo not given) | > 40 µM | > 40 µM |  |  |  |  |  |
| CC1(c2ccc(Nc3nc(NCCCN4CCOCC4)nc(NCCCN4CCOCC4)n3)cc2)NC(=O)c2ccccc2N1 (stereo not given) | > 40 µM | > 40 µM |  |  |  |  |  |
| CCCNc1nc(NCCC)nc(Nc2ccc(C3(C)NC(=O)c4ccccc4N3)cc2)n1 (stereo not given) | 8.87 µM | 8.86 µM |  | >45.09 | > 400 µM |  | > 400 µM |
| CC1(c2ccc(NC(c3cccc4ccccc34)c3nnnn3C(C)(C)C)cc2)NC(=O)c2ccccc2N1 (stereo not given) | > 20 µM | 3.92 µM |  |  |  |  |  |
| CC1(c2ccc(NC(c3ccc(Br)cc3)c3nnnn3C(C)(C)C)cc2)NC(=O)c2ccccc2N1 (stereo not given) | 8.46 µM | 24.1 µM |  | 47.28 | 400 µM |  | > 400 µM |
| CC(C)(C)Nc1nc(Nc2ccc(C3(C)NC(=O)c4ccccc4N3)cc2)nc(NC(C)(C)C)n1 (stereo not given) | 5.48 µM | 1.02 µM |  | 11.07 | 60.7 µM |  | 159 µM |
| COc1cc(-c2cc(-c3ccc(C4NC(=O)c5ccccc5N4)cc3)nc(N)n2)cc(OC)c1OC (stereo not given) | 3.83 µM | 3.44 µM |  | 26.97 | 103 µM |  | 85.9 µM |
| CC1(c2ccc(NC(c3ccncc3)c3nnnn3C(C)(C)C)cc2)NC(=O)c2ccccc2N1 (stereo not given) | > 40 µM | > 40 µM |  |  |  |  |  |
| CCCCNc1nc(NCCCC)nc(Nc2ccc(C3(C)NC(=O)c4ccccc4N3)cc2)n1 (stereo not given) | 4.8 µM | 7.69 µM |  | 8.35 | 40.1 µM |  | 142 µM |
| CC1(c2ccc(NC(c3ccc(Cl)cc3)c3nnnn3C(C)(C)C)cc2)NC(=O)c2ccccc2N1 (stereo not given) | 7.06 µM | 1.21 µM |  | >56.65 | > 400 µM |  | > 400 µM |
| CC(C)(C)n1nnnc1C(NCc1ccccc1)c1ccc(C2NC(=O)c3ccccc3N2)cc1 (stereo not given) | > 40 µM | 3.64 µM |  |  |  |  |  |
| COc1ccc(-c2cc(-c3ccc(C4NC(=O)c5ccccc5N4)cc3)nc(N)n2)cc1 (stereo not given) | 10.1 µM | 5.79 µM |  | 17.64 | 178 µM |  | 124 µM |
| CC1(c2ccc(Nc3nc(N4CCOCC4)nc(N4CCOCC4)n3)cc2)NC(=O)c2ccccc2N1 (stereo not given) | > 40 µM | > 40 µM |  |  |  |  |  |
| CC(C)c1ccc(C(Nc2ccc(C3(C)NC(=O)c4ccccc4N3)cc2)c2nnnn2C2CCCCC2)cc1 (stereo not given) | 9.07 µM | 7 µM |  | >44.1 | > 400 µM |  | > 400 µM |
| CC1(c2ccc(Nc3nc(N4CCCCCC4)nc(N4CCCCCC4)n3)cc2)NC(=O)c2ccccc2N1 (stereo not given) | 2.59 µM | 6.02 µM | 37.4% | 91.64 | 237 µM |  | > 400 µM |
| Nc1nc(-c2ccc(F)cc2)cc(-c2ccc(C3NC(=O)c4ccccc4N3)cc2)n1 (stereo not given) | 24.7 µM | 9.83 µM |  |  |  |  |  |
| COc1ccc(C(Nc2ccc(C3(C)NC(=O)c4ccccc4N3)cc2)c2nnnn2C(C)(C)C)c2ccccc12 (stereo not given) | 15.5 µM | 2.56 µM |  |  |  |  |  |
| COc1cc(C(Nc2ccc(C3(C)NC(=O)c4ccccc4N3)cc2)c2nnnn2C(C)(C)C)cc(OC)c1OC (stereo not given) | > 40 µM | > 40 µM |  |  |  |  |  |
